Columns and labels:
[1] = Inhibition of HIV1 His6-tagged integrase-recombinant flag-tagged LEDGF/p75 interaction at 100 uM after 1 hr by alphascreen assay
[2] = Inhibition of HIV-1 His6-tagged integrase-recombinant flag-tagged LEDGF/p75 interaction 1 hr by alphascreen assay
[3] = Selectivity ratio of compound IC50 to CHIBA-3003 IC50 for HIV-1 His6-tagged integrase-recombinant flag-tagged LEDGF/p75 interaction

SMILES | inhibition [1] [%] | IC50 [2] [µM] | Ratio IC50 [3]
CCOC(=O)/C(O)=C/C(=O)c1cn(Cc2cccc(C)c2C)c2cccc(O)c12 | 57 | – | –
CCOC(=O)/C(O)=C/C(=O)c1cn(Cc2cccc(C)c2)c2cccc(O)c12 | 45 | – | –
Cc1ccccc1Cn1cc(C(=O)/C=C(\O)C(=O)O)c2c(O)cccc21 | 20 | – | –
CCOC(=O)/C(O)=C/C(=O)c1cn(Cc2ccccc2C)c2cccc(O)c12 | 24 | – | –
Cc1ccc(Cn2cc(C(=O)/C=C(\O)C(=O)O)c3c(O)cccc32)cc1 | 86 | 68 | –
Cc1ccc(Cn2cc(C(=O)/C=C(\O)C(=O)O)c3c(O)cccc32)c(C)c1 | 55 | – | –
Cc1cc(C)cc(Cn2cc(C(=O)C3=C(O)C(=O)OC3)c3c(O)cccc32)c1 | 69 | 123 | –
Cc1ccc(Cn2cc(C(=O)C3=C(O)C(=O)OC3)c3c(O)cccc32)c(C)c1 | 96 | 11.7 | –
Cc1cccc(C)c1Cn1cc(C(=O)/C=C(\O)C(=O)O)c2c(O)cccc21 | 72 | – | –
CCOC(=O)/C(O)=C/C(=O)c1cn(Cc2cc(C)cc(C)c2)c2cccc(O)c12 | 52 | – | –
Cc1cccc(C)c1Cn1cc(C(=O)C2=C(O)C(=O)OC2)c2c(O)cccc21 | 70 | 7.5 | –
Cc1cccc(Cn2cc(C(=O)C3=C(O)C(=O)OC3)c3c(O)cccc32)c1C | 70 | – | –
CCOC(=O)/C(O)=C/C(=O)c1cn(Cc2c(C)cccc2C)c2cccc(O)c12 | 47 | – | –
Cc1cccc(Cn2cc(C(=O)/C=C(\O)C(=O)O)c3c(O)cccc32)c1 | 16 | – | –
CCOC(=O)/C(O)=C/C(=O)c1cn(Cc2ccc(C)cc2C)c2cccc(O)c12 | 58 | – | –
O=C(O)/C(O)=C/C(=O)c1cn(Cc2ccc(F)cc2)c2cccc(O)c12 | 56 | 76 | –
Cc1cc(C)cc(Cn2cc(C(=O)/C=C(\O)C(=O)O)c3c(O)cccc32)c1 | 94 | 3.5 | 10
O=C(O)/C(O)=C/C(=O)c1c[nH]c2cccc(O)c12 | 71 | 35 | –
CCOC(=O)/C(O)=C/C(=O)c1cn(Cc2ccc(C)cc2)c2cccc(O)c12 | 60 | 171 | –
Cc1ccccc1Cn1cc(C(=O)C2=C(O)C(=O)OC2)c2c(O)cccc21 | 34 | – | –
Cc1cccc(Cn2cc(C(=O)/C=C(\O)C(=O)O)c3c(O)cccc32)c1C | 93 | 28.5 | –
CCOC(=O)/C(O)=C/C(=O)c1cn(Cc2cc(C)ccc2C)c2cccc(O)c12 | 33 | – | –
Cc1ccc(Cn2cc(C(=O)C3=C(O)C(=O)OC3)c3c(O)cccc32)cc1 | 81 | 8.7 | –
Cc1cccc(Cn2cc(C(=O)C3=C(O)C(=O)OC3)c3c(O)cccc32)c1 | 61 | 53.3 | –
Cc1ccc(C)c(Cn2cc(C(=O)C3=C(O)C(=O)OC3)c3c(O)cccc32)c1 | 38 | – | –
Cc1ccc(C)c(Cn2cc(C(=O)/C=C(\O)C(=O)O)c3c(O)cccc32)c1 | 40 | – | –

Source: ChEMBL document CHEMBL1268839, “Small molecules targeting the interaction between HIV-1 integrase and LEDGF/p75 cofactor” (Bioorg Med Chem, 2010)
